The test system of test [1] is P388 mouse leukemia cells. Description: Activity against tumor cell growth (P388, MTT, 72 h). The format is cell-based. Particulars: P388 mouse leukemia cells, 72 h, 37° C., MTT; read-out: IC50 (50% growth inhibition concentration). On the procedure: Using a culture medium RPMI1640 supplemented with 10% inactivated bovine fetal serum, 2 mM glutamine, 100 μ/ml kanamycin sulfate, and 5 μM 2-hydroxyethyldisulfide (This culture medium is hereinafter referred to simply as "culture medium"), P388 mouse leukemia cells were diluted to a concentration of 1.5×10^5 cells/ml in the culture medium, and were placed in each well of 96-well multiplate in 60 μl portions. Separately, the test compound was dissolved in dimethylsulfoxide and was adequately diluted with the culture medium. The diluted solution containing test compound was added to the wells of the above plate respectively in 60 μl portions. Then the cells were incubated in a CO2 -incubator (5% CO2, 37° C.) for 72 hours.
The surviving cell numbers were measured according to the Mosmann's method (J. Immunol. Meth., 65 55-63, 1983) as follows. A 2.5 mg/ml solution of MTT (3-[4,5-dimethylthiazol-2-yl]-2,5-diphenyltetrazolium bromide) in Dulbecco's phosphate buffer solution (PBS) was prepared and added to each of the wells by 20 μl. The cells were further incubated for 3 hours. A 150 μl portion of 0.04N hydrochloric acid-isopropanol solution was added to each of the wells, and MTT-formazane formed was allowed to dissolve by pipetting. The absorbance of the solutions was measured at 540 nm taking the no-cell-containing [solution as the background. The 50% growth inhibition concentration (ICs50) was calculated from ratio of the absorbances of the treated samples to the absorbance of the no-medicine-treated sample, and from the concentration of the test compound.

Another test concerns Sarcoma-180 cells. As to the kind of experiment: Antineoplastic activity, mice having Sarcoma-180 cells transplanted subcutaneously. The format is in vivo, mouse (female, CDR strain). Particulars: Mus musculus, Sarcoma-180, iv, 144 h, read-out: T/C (average tumor weight, dosed vs. solvent-dosed control). On the procedure:
The test compound was dissolved in dimethylsulfoxide, and the solution was adequately diluted with 10% Emulfore EL620(produced by Rhone Poulenc Co.) to prepare the test compound solution. The antineoplastic activity was evaluated as below.
To the lateral region of a female mouse (CDR strain, 5 to 6 week age), 3.6×10^6 to 5×10^6 Sarcoma-180 cells were transplanted subcutaneously. Next day, the test medicine solution was injected into the tail vein in a single dose. Eight to twelve mice were employed for the solvent-dosed control group, and five mice were employed for the dosed group. Six days after the dosage, the tumor was cut out, and the weight thereof was measured. The antineoplastic effect was evaluated by the ratio (T/C) of the average tumor weight of the dosed group (T) to the average tumor weight of the solvent-dosed control group (C).

In brackets after ≈: the same amount, converted by molar mass. Where a name gives a salt, the structure may show the parent alone. Read-outs that look alike come from different tables or passages of the source.

For the compound `COC(=O)c1c(C(F)(F)F)[nH]c2c(O)cc3c(c12)C(CCl)CN3C(=O)c1cc2cc(NC(=O)c3cc4cccc(OC)c4o3)ccc2[nH]1` (stereo not shown) [Example 11, Methyl 1-chloromethyl-5-hydroxy-3-[5-[(7-methoxybenzofuran-2-ylcarbonyl)amino]-1H-indol-2-ylcarbonyl]-7-trifluoromethyl-1,2,3,6-tetrahydropyrrolo[3,2-e]indole-8-carboxylate], in test [1], the IC50 was found to be 0.67 ng/mL (≈ 0.984 nM). Besides, the response vs control in vivo at 1 mg/kg with Sarcoma-180 cells (i.v. 1.0 mg/kg single dose, tumor weighed six days after dosage) was 6%.

Regarding `COC(=O)c1c(C(F)(F)F)[nH]c2c(O)cc3c(c12)C(CCl)CN3C(=O)c1cc2cc(NC(=O)c3ccc4ccccc4c3)ccc2[nH]1` (stereo not shown) [Example 15, Methyl 1-chloromethyl-5-hydroxy-3-[5-[(naphthalene-3-ylcarbonyl)amino]-1H-indol-2-ylcarbonyl]-7-trifluoromethyl-1,2,3,6-tetrahydropyrrolo[3,2-e]indole-8-carboxylate], in test [1], the IC50 stood at 0.83 ng/mL (≈ 1.26 nM). Moreover, the response vs control in vivo at 0.5 mg/kg with Sarcoma-180 cells (i.v. 0.5 mg/kg single dose, tumor weighed six days after dosage) is 11%.

Regarding `COC(=O)c1c(C(F)(F)F)[nH]c2c(O)cc3c(c12)C(CCl)CN3C(=O)c1cc2cc(NC(=O)c3cc4c(cn3)[nH]c3ccccc34)ccc2[nH]1` (stereo not shown) [Example 19, Methyl 1-chloromethyl-5-hydroxy-3-[5-[(9H-pyrido[3,4-b]indol-3-ylcarbonyl)amino]-1H-indol-2ylcarbonyl]-7-trifluoromethyl-1,2,3,6-tetrahydropyrrolo[3,2e]indole-8-carboxylate], the IC50 in test [1] was determined as 0.11 ng/mL (≈ 0.157 nM). Further, in the test on Sarcoma-180 cells (i.v. 0.25 mg/kg single dose, tumor weighed six days after dosage), the response vs control in vivo at 0.25 mg/kg turned out to be 22%.

Turning to `COC(=O)c1c(C(F)(F)F)[nH]c2c(OC(=O)N3CCN(C)CC3)cc3c(c12)C(CCl)CN3C(=O)c1cc2cc(NC(=O)c3cc4cc(OC)c(OC)c(OC)c4[nH]3)ccc2[nH]1` (stereo not shown) [Example 51, Methyl 1-chloromethyl-5-(4-methylpiperazin-1-ylcarbonyl)oxy-7-trifluoromethyl-3-[5-[(5,6,7-trimethoxy1H-indol-2-ylcarbonyl)amino]-1H-indol-2-ylcarbonyl)-1,2,3,6tetrahydropyrrolo[3,2-e]indol, e-8-carboxylate], in the test on Sarcoma-180 cells, the response vs control in vivo at 4 mg/kg was determined as 25%.

`COC(=O)c1c(C(F)(F)F)[nH]c2c(OC(=O)N3CCN(C)CC3)cc3c(c12)C(CCl)CN3C(=O)c1cc2cc(NC(=O)c3cc4ccccc4cn3)ccc2[nH]1` (stereo not shown) [Example 52, Methyl 1-chloromethyl-5-(4-methylpiperazin-1-ylcarbonyl)oxy-3-[5-[(isoquinolin-3-ylcarbonyl)amino]-1H-indol-2-ylcarbonyl)-7-trifluoromethyl-1,2,3,6-tetrahydropyrrolo[3,2-e]indole-8-carboxylate]: the response vs control in vivo at 1 mg/kg in the test with Sarcoma-180 cells is 12%.

On to `COC(=O)c1c(C(F)(F)F)[nH]c2c(OC(=O)N3CCN(C)CC3)cc3c(c12)C(CBr)CN3C(=O)c1cc2cc(NC(=O)c3cc4cc(OC)c(OC)c(OC)c4[nH]3)ccc2[nH]1` (stereo not shown) [Example 53, Methyl 1-bromomethyl-5-(4-methylpiperazin-1-ylcarbonyl)oxy-7-trifluoromethyl-3-[5-[(5,6,7-trimethoxy1H-indol-2-ylcarbonyl)amino]1H-indol-2-ylcarbonyl]-1,2,3,6-tetrahydropyrrolo[3,2-e]indole-8-carboxylate], for which the response vs control in vivo at 4 mg/kg in the test with Sarcoma-180 cells was found to be 20%.

`COC(=O)c1c(C(F)(F)F)[nH]c2c(OC(=O)N3CCN(C)CC3)cc3c(c12)C(CBr)CN3C(=O)c1cc2cc(NC(=O)c3cc4ccccc4cn3)ccc2[nH]1` (stereo not shown) [Example 54, Methyl 1-bromomethyl-5-(4-methylpiperazin-1-ylcarbonyl)oxy-3-[5-[(isoquinolin-3-ylcarbonyl)amino]-1H-indol-2-ylcarbonyl]-7-trifluoromethyl-1,2,3,6-tetrahydropyrrolo[3,2-e]indole-8-carboxylate hydrochloride salt]: the response vs control in vivo at 0.25 mg/kg in the test with Sarcoma-180 cells stood at 15%.

(Values after US5629430A, “Trifluoromethylpyrroloindolecarboxylic acid ester and process for production thereof” (Kyorin Pharmaceutical Co., Ltd., priority 1992, dated 1997).)
